This is an account of results in publication PMC10907358, “Identification of oleic acid as an endogenous ligand of GPR3” (Cell Research, 2024).

Where “and” joins values, the source holds several entries; their conditions need not be identical. Identical values can stand only once. Entries after “also recorded” stand apart in the source; their conditions may differ.

The target of one assay is T1, GPR3 (Homo sapiens, UniProt P46089).
T1 construct: expressed in transfected cells
Nature of the assay: GloSensor cAMP assay in GPR3 stably expressing AD293 cell line (agonist mode). The assay is classed as cell-based. On the procedure:
(§1) The GloSensor cAMP assay was performed according to the instructions of Promega. AD293 cells were split into 6-well plate (300,000 cells/mL) and then transfected with the pGloSensor™-22F cAMP plasmid and pcDNA3-GPR3 plasmid by Lipofectamine 2000, at a ratio of 2:1 (μL:μg). 24 h after transfection, cells were split into 96-well plate for another 24 h incubation. After removal of cell medium, 90 μL of 3% v/v (the GloSensor cAMP reagent vs serum-free medium) substrate was added into each well. After 2 h incubation at RT, background measurements were taken, and then 10 μL 10× stock compounds were added for the second measurements of ligand activation via EnVision 2105 (PerkinElmer). Relative cAMP level was calculated by the cAMP level after addition of ligand divided by the cAMP level before addition of ligand (basal level). Stock FAs (i.e., 10–50 mM) were solubilized in DMSO, then diluted in cell culture buffer to designated concentrations and sonicated to ensure that they were evenly distributed in the buffer before being added to cells.
AD293 cells were split into 6-well plate (300,000 cells/mL), and then transfected with the pGloSensor™-22F cAMP plasmid and the pcDNA6-GPR3-3× FLAG plasmid (WT receptor or the mutants, F120A^3.36, W260A^6.48, L283F^7.39, A201W^5.46, Y280A^7.36, H96A^2.60 and H96A^2.60/Y280A^7.36) by Lipofectamine 2000 at a ratio of 2:1 (μL:μg). Geneticin (2 mg/mL) and blasticidin (20 μg/mL) were used to select colonies that stably express both GPR3 and GloSensor 22F. The cell culture medium containing antibiotics was changed every 2 days till well-separated colonies appeared. Then individual single colony was picked by a small piece of sterilized filter paper soaked with trypsin and separately cultured in a single well of 24-well plate. At least 24 candidate colonies were selected for each mutant and WT. After several days of culture, each colony was triplicated. One of the triplicates was used for western blot analysis, another for the GloSensor cAMP assay, and the remaining one was stored for staining. The colonies with top scores in both expression (western blot) and functional assay were selected as the representative colonies for each mutant or WT for further analysis.

In the next assay the target is T2, GPR3 F120A mutant (Homo sapiens, UniProt P46089, F120A).
T2 construct: expressed in transfected cells
T2 sequence (P46089 whole entry F120A): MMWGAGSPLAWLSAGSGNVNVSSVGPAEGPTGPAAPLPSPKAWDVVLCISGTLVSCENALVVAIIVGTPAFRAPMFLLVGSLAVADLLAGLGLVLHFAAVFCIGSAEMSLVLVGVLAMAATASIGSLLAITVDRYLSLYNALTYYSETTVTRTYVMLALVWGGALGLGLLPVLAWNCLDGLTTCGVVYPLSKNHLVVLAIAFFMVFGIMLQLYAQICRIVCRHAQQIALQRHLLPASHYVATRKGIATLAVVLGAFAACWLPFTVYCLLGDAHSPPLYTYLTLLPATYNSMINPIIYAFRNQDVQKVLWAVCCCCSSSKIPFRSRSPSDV
Nature of the assay: OA dose-response, GloSensor cAMP assay, AD293 stably expressing GPR3 F120A mutant. The assay is classed as cell-based. The settings on record: Table S3, F120A. The protocol:
as §1
(§2) AD293 cells were split into 6-well plate (300,000 cells/mL), and then transfected with the pGloSensor™-22F cAMP plasmid and the pcDNA6-GPR3-3× FLAG plasmid (WT receptor or the mutants, F120A^3.36, W260A^6.48, L283F^7.39, A201W^5.46, Y280A^7.36, H96A^2.60 and H96A^2.60/Y280A^7.36) by Lipofectamine 2000 at a ratio of 2:1 (μL:μg). […]
(In general: Cyclic AMP is a second messenger, typically raised through Gs and lowered through Gi signalling.)

On the set-up of assay [1]: method as in PMID 7722695, PMID 18059405. The settings on record: feeding rats with OA; cited from earlier work.
The subject of another assay is GPR120. Further details: method as in PMID 36862765. As to conditions: cited from earlier work.
Another assay has as its target T3, GPR3 H96A/Y280A mutant (Homo sapiens, UniProt P46089, H96A/Y280A).
T3 construct: expressed in transfected cells
Nature of the assay: OA dose-response, GloSensor cAMP assay, AD293 stably expressing GPR3 H96A/Y280A mutant. The assay is classed as cell-based. As to conditions: H96A/Y280A stable line. The protocol: as §1, §2

The next assay deals with T4, GPR12 (Homo sapiens, UniProt P47775).
T4 construct: FLAG; expressed in transfected cells
T4 sequence (P47775 1-334): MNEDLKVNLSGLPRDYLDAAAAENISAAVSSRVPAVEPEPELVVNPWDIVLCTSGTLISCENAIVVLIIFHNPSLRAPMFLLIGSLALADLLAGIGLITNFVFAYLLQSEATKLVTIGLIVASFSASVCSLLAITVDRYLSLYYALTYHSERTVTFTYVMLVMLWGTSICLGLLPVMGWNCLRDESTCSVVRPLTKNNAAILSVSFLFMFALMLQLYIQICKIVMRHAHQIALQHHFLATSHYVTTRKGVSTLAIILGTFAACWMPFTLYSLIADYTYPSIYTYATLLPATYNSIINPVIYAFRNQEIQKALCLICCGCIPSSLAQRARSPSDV
Nature of the assay: GloSensor cAMP assay in GPR12 stably expressing AD293 cell line. The assay is classed as cell-based. The settings on record: lipid concentration 300 μM.

In a further assay the target is T5, GPR3 W260A mutant (Homo sapiens, UniProt P46089, W260A).
T5 construct: expressed in transfected cells
T5 sequence (P46089 whole entry W260A): as the sequence (P46089 whole entry F120A) above, with A120F, W260A counted along it
Nature of the assay: OA dose-response, GloSensor cAMP assay, AD293 stably expressing GPR3 W260A mutant. The assay is classed as cell-based. As to conditions: W260A stable line. The protocol: as §1, §2

For the next assay, the target named is T6, GPR3 H96A mutant (Homo sapiens, UniProt P46089, H96A).
T6 construct: expressed in transfected cells
T6 sequence (P46089 whole entry H96A): as the sequence (P46089 whole entry F120A) above, with H96A, A120F counted along it
Nature of the assay: OA dose-response, GloSensor cAMP assay, AD293 stably expressing GPR3 H96A mutant. As to conditions: Table S3, H96A. The assay is classed as cell-based. On the procedure:
as §1, §2

Assay [2] concerns Gs/cAMP/PKA signaling in Gpr3 KO iBAT. Put plainly: Ex vivo iBAT of Gpr3 KO mice, p-PKA substrate immunoblot. As to conditions: OA 1 mM, 4 h. The assay is classed as cell-based, mouse. The protocol: iBAT was isolated from C57BL/6N mice at 4–6 weeks old and cut into 10 mg pieces. 10 mg iBAT was further cut into four pieces.[67] iBAT pieces were incubated in Dulbecco’s modified eagle medium (DMEM) at 4 °C, and treated with OA (1 mM) for different times (0 h, 1 h, 2 h, and 4 h). Another group of iBAT pieces were incubated in DMEM medium at 4 °C, and treated with different doses of OA (0 mM, 1 mM, 5 mM) for 4 h. OA (Sigma, O1008) was dissolved in serum-free DMEM (Gibco, high glucose, 12100046) by using an ultrasonic cleaner at 40 °C for 10 min. p-(S/T)PKA substrate and GAPDH levels were measured by immunoblotting, and quantified by densitometry using ImageJ. iBAT was also isolated from WT and Gpr3 KO mice at 4–6 weeks old and cut into 10 mg pieces. 10 mg iBAT was further cut into four pieces. iBAT pieces were incubated in DMEM medium at 4 °C, and treated with or without OA (1 mM) for 4 h. p-(S/T)PKA substrate and GAPDH levels were measured by immunoblotting, and quantified by ImageJ.
To generate Gpr3 complete KO mice rapidly, we performed one-step complete knockout based on CRISPR/Cas9 systems, which was described previously.[68] Briefly, four adjacent single-guide RNAs (sgRNAs) (spaced 50–100 bp apart; sgRNA1: […]; sgRNA2: […]; sgRNA3: […]; sgRNA4: […]) that target key exon of Gpr3 were designed. […]
A general note: In western blotting, separated proteins are transferred to a membrane and probed.

A further assay concerns the target T7, GPR3 Y280A mutant (Homo sapiens, UniProt P46089, Y280A).
T7 construct: expressed in transfected cells
Nature of the assay: OA dose-response, GloSensor cAMP assay, AD293 stably expressing GPR3 Y280A mutant. The assay is classed as cell-based. The settings on record: Table S3, Y280A. On the procedure: as §1, §2

The target in another assay is T8, GPR3 L283F mutant (Homo sapiens, UniProt P46089, L283F).
T8 construct: expressed in transfected cells
T8 sequence (P46089 whole entry L283F): as the sequence (P46089 whole entry F120A) above, with A120F, L283F counted along it
Put plainly: OA dose-response, GloSensor cAMP assay, AD293 stably expressing GPR3 L283F mutant. The assay is classed as cell-based. The settings on record: Table S3, L283F. The protocol: as §1, §2

The target in a further assay is T9, GPR3 A201W mutant (Homo sapiens, UniProt P46089, A201W).
T9 construct: expressed in transfected cells
T9 sequence (P46089 whole entry A201W): as the sequence (P46089 whole entry F120A) above, with A120F, A201W counted along it
Put plainly: OA dose-response, GloSensor cAMP assay, AD293 stably expressing GPR3 A201W mutant. The assay is classed as cell-based. The settings on record: Table S3, A201W. The protocol:
as §1, §2

Assay [3] relates to Gs/cAMP/PKA signaling in iBAT. Put plainly: Ex vivo iBAT of WT mice, p-PKA substrate immunoblot. The assay is classed as cell-based, mouse. As to conditions: up to 4 h. On the procedure: iBAT was isolated from C57BL/6N mice at 4-6 weeks old and cut into 10 mg pieces. […] Another group of iBAT pieces were incubated in DMEM medium at 4 °C, and treated with different doses of OA (0 mM, 1 mM, 5 mM) for 4 h. OA (Sigma, O1008) was dissolved in serum-free DMEM (Gibco, high glucose, 12100046) by using an ultrasonic cleaner at 40 °C for 10 min.

The mark [4] stands for this setting: Table S3, WT receptor stable line, OA dose-response.

T1 sequence (P46089 whole entry): as the sequence (P46089 whole entry F120A) above, with A120F counted along it
T7 sequence (P46089 whole entry Y280A): as the sequence (P46089 whole entry F120A) above, with A120F, Y280A counted along it
T3 sequence (P46089 whole entry H96A/Y280A): as the sequence (P46089 whole entry F120A) above, with H96A, A120F, Y280A counted along it

Consider `CCCCCCCC/C=C\CCCCCCCC(=O)O` [OA, oleic acid], for which the maximum response on GPR3 (Table S2, relative cAMP level, at 500 μM (FA 12:0, 16:1, 18:0, OEA 18:1, OLM 18:1), 450 μM (FA 18:1), 400 μM (FA 16:0), 300 μM (FA 22:0, 18:2), 100 μM (FAME 18:0, FAEE 18:0, lysophospholipids), 3 μM (LTB4)) was found to be 164.1; on GPR3 (setting [4]) it was 186.6; on GPR3 F120A mutant, 23.67; at GPR3 H96A mutant, 83.68; at GPR3 Y280A mutant, 61.91; at GPR3 L283F mutant, 39.13. At GPR3 A201W mutant, this compound had a maximum response of 157.9. Besides, the EC50 at GPR3 (setting [4]) is 293 µM; on GPR3 (cAMP induction, GPR3 stably expressing AD293) it was 299 µM and 300 µM; at GPR3 F120A mutant, 252 µM; in the assay with GPR120, 40.6 µM; at GPR3 H96A mutant it was 255 µM; on GPR3 Y280A mutant, 322 µM. In addition, the EC50 on GPR3 A201W mutant was 291 µM. Besides, the “thermogenesis and body weight” value in assay [1] was “induces thermogenesis and reduces body weight”. Besides, on GPR3 H96A/Y280A mutant, the “Emax compared to WT receptor (in words)” value is given as “lower Emax than the WT receptor”. Further, the “GPR12 activation (in words)” value on GPR12 was “strongest effect on GPR12 activation”. The “response to OA (in words)” value on GPR3 W260A mutant is listed as “completely lost their response to OA”. Moreover, the “induction of Gs/cAMP/PKA signaling by OA” value in assay [2] is “completely blocked”. Besides, the “Gs/cAMP/PKA signaling (phosphorylation of PKA substrates)” value is “robust increase of Gs/cAMP/PKA signaling; also recorded: substantially increased Gs/cAMP/PKA signaling” in assay [3] (WT iBAT at 4 °C, lipid 1 mM (OA also 5 mM)) and “to a lesser extent than in the samples treated at 4 °C” in assay [3] (WT iBAT at 37 °C, OA 1 mM, 5 mM).

Broadly, the EC50 is the concentration at which the effect is half-maximal.
